Reference: article PMC10668861 (2023)

System: F21D (DNA, G4) GGGTTAGGGTTAGGGTTAGGG
Experiment: FRET melting
Conditions: 5 mM K+, 95 mM Li+; 10 mM lithium cacodylate, pH 7.2; 0.2 µM DNA, 4 µM compound

[Ru+2].c1ccc(-c2ccccn2)nc1.c1ccc(-c2ccccn2)nc1.c1ccc2nc3c4cccnc4c4ncccc4c3nc2c1
ΔTm: 14 ± 1 °C
